Where two headings read alike, the source gives them in different places. Starred links: 1 amine or outer side, 2 acyl side, 3 side chain; linkers in the order of their positions; H or OH if unused. Non-standard residues stand in square brackets, D forms with d. Residues, ends and D or L forms follow the SMILES beside them. *: point of attachment. X1 = O=C(CCCC[C@@H]1SC[C@@H]2NC(=O)N[C@@H]21)NCCCOCCOCCOCCCN*; pT = C[C@@H](OP(=O)(O)O)[C@H](N)C(=O)O; Suc = O=C(CCC(=O)[*:2])[*:1]
Columns and labels:
Assay in all cases: biochemical
Type in all cases: binding
14-3-3γ [1] = biological target: T1, 14-3-3γ (Homo sapiens, UniProt P61981)
T1 construct: full-length human 14-3-3 constructs with an N-terminal MBP fusion were used; made in house; host or cells: E. coli BL21(DE3)
T1 sequence (P61981 1-247): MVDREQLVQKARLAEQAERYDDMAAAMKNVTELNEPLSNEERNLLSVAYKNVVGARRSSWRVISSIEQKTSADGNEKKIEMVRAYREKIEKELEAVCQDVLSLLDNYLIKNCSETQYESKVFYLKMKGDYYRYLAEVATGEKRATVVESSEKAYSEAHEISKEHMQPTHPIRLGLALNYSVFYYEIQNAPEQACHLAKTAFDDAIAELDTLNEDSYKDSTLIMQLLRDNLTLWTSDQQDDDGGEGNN

14-3-3ε = biological target: T2, 14-3-3ε (Homo sapiens, UniProt P62258)
T2 construct: Plasmids containing the cDNAs of the full-length 14-3-3 isoforms ε, γ, and ζ were received; made in house; host or cells: E. coli BL21(DE3)
T2 sequence (P62258 1-255): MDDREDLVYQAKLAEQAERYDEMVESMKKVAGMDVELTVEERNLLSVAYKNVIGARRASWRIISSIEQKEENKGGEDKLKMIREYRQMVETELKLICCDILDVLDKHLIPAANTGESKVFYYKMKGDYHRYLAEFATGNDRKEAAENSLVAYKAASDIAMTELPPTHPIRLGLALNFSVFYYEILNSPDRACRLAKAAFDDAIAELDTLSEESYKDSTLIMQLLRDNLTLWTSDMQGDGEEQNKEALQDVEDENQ

14-3-3ζ = biological target: T3, 14-3-3ζ (Homo sapiens, UniProt P63104)
T3 construct: Plasmids containing the cDNAs of the full-length 14-3-3 isoforms ε, γ, and ζ were received; made in house; host or cells: E. coli BL21(DE3)
T3 sequence (P63104 1-245): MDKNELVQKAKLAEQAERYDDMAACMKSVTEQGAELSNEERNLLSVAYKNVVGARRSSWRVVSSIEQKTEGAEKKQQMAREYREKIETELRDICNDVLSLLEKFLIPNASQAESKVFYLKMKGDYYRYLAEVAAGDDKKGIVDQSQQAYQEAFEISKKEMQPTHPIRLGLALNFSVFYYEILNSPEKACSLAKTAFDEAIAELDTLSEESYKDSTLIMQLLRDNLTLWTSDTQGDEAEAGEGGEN

14-3-3γ [2] = biological target: T1, 14-3-3γ; remark: listed apart in the source
Description: FP was measured with a PHERAstar (BMG Labtech, Offenburg, Germany) microplate reader by using 485 ± 20 and 528 ± 20 nm band-pass filters (for excitation and emission, respectively). In direct FP measurements, a dilution series of the 14-3-3 protein was prepared in 96-well plates (96-well skirted PCR plate, 4ti-0740, 4titude, Wotton, UK) in a 20 mM HEPES pH 7.5 buffer containing 150 mM NaCl, 0.5 mM TCEP, 0.01% Tween 20, 50 nM fluorescently labeled fpB6 peptide, and 100 μM FSC, if indicated. The volume of the dilution series was 40 μl, which was later divided into three technical replicates of 10 μl upon transferring to 384-well micro-plates (low binding microplate, 384 well, E18063G5, Greiner Bio-One, Kremsmünster, Austria). In total, polarization of the probe was measured at eight different protein concentrations (whereas one contained no protein and corresponded to the free peptide). In competitive FP measurements, the same buffer was supplemented with the protein to achieve a complex formation of 60–80%, based on the direct titration. Then, this mixture was used for creating a dilution series of the unlabeled competitor (i.e., the studied peptides) and the measurement was carried out identically as in the direct experiment.
All FP experiments were done in triplicates. Analysis of FP experiments were carried out using ProFit, an in-house developed, Python-based fitting program. […]

14-3-3η = biological target: T4, 14-3-3η (Homo sapiens, UniProt Q04917)
T4 construct: cDNAs encoding other full-length 14-3-3 isoforms β, τ, η, and σ were obtained as codon-optimized; made in house; host or cells: E. coli BL21(DE3)
T4 sequence (Q04917 1-246): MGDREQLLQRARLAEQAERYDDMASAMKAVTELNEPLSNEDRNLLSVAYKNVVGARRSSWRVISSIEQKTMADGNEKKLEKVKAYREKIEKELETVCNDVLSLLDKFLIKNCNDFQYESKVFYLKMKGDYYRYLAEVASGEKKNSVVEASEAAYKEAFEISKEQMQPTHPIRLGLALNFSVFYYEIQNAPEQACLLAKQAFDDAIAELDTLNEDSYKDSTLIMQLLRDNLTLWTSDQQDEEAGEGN

Compound	Kd (14-3-3γ [1]) [µM]	Kd (14-3-3ε) [µM]	Binding affinities (KD) of various 14-3-3-binding motifs, 14-3-3ε (14-3-3ε; Figure 4 panel a, unit from the colour scale line, motifs measured in this work)	Kd (14-3-3ζ) [µM]	Kd (14-3-3γ [2]) [µM]	Kd (14-3-3γ [1]; Binding affinities (KD) of various 14-3-3-binding motifs, 14-3-3γ) [µM]	Kd (14-3-3γ [1]; KD (μM) ± std 14-3-3γ) [µM]	Kd (14-3-3η) [µM]	Binding affinities (KD) of various 14-3-3-binding motifs, 14-3-3ε (14-3-3ε)
CC(C)C[C@H](NC(=O)[C@H](CCC(N)=O)NC(=O)[C@@H](NC(=O)[C@H](CCC(=O)O)NC(=O)[C@H](CCCNC(=N)N)NC(=O)[C@H](CCCNC(=N)N)NC(=O)[C@@H](NC(=O)[C@H](CCCNC(=N)N)NC(=O)[C@H](CO)NC(=O)[C@H](CO)NC(=O)CCC(=O)NCCCOCCOCCOCCCNC(=O)CCCC[C@@H]1SC[C@@H]2NC(=O)N[C@@H]21)[C@@H](C)O)[C@@H](C)OP(=O)(O)O)C(=O)O [pHPV16E6]	37.2 ± 3	> 300	√	73.6 ± 19.1	–	–	–	–	–
CC(C)C[C@H](NC(=O)[C@H](CCCNC(=N)N)NC(=O)CCC(=O)NCCCOCCOCCOCCCNC(=O)CCCC[C@@H]1SC[C@@H]2NC(=O)N[C@@H]21)C(=O)N[C@@H](CCC(N)=O)C(=O)N[C@@H](CCCNC(=N)N)C(=O)N[C@@H](CCCNC(=N)N)C(=O)N[C@@H](CCCNC(=N)N)C(=O)N[C@@H](CCC(=O)O)C(=O)N[C@H](C(=O)N[C@@H](CCC(N)=O)C(=O)N[C@H](C(=O)O)C(C)C)[C@@H](C)OP(=O)(O)O [pHPV18E6]	11.1 ± 0.6	–	–	22.4 ± 1.3	–	–	–	–	–
CC(C)C[C@H](NC(=O)[C@H](C)NC(=O)[C@@H](NC(=O)[C@H](CCC(=O)O)NC(=O)[C@H](CCCNC(=N)N)NC(=O)[C@H](CCCNC(=N)N)NC(=O)[C@H](CCCNC(=N)N)NC(=O)[C@H](CO)NC(=O)[C@H](CCCNC(=N)N)NC(=O)[C@H](CO)NC(=O)CCC(=O)NCCCOCCOCCOCCCNC(=O)CCCC[C@@H]1SC[C@@H]2NC(=O)N[C@@H]21)[C@@H](C)OP(=O)(O)O)C(=O)O [pHPV33E6] ({X1-Suc}-SRSRRRE[pT]AL-OH)	–	10.3	–	–	2.2 ± 0.3	0.94	< 1	1.98	–
CC(C)[C@H](NC(=O)[C@H](C)NC(=O)[C@@H](NC(=O)[C@H](CCC(=O)O)NC(=O)[C@H](CCCNC(=N)N)NC(=O)[C@H](CCCNC(=N)N)NC(=O)[C@@H](NC(=O)[C@@H]1CCCN1C(=O)[C@H](CCCCN)NC(=O)[C@H](CO)NC(=O)CCC(=O)NCCCOCCOCCOCCCNC(=O)CCCC[C@@H]1SC[C@@H]2NC(=O)N[C@@H]21)[C@@H](C)O)[C@@H](C)OP(=O)(O)O)C(=O)O [pHPV35E6E-1A] ({X1-Suc}-SKPTRRE[pT]AV-OH)	9.31	31.9	–	17.6	–	–	–	12.4	–
CC(C)[C@H](NC(=O)[C@H](CCC(=O)O)NC(=O)[C@@H](NC(=O)[C@H](CCC(=O)O)NC(=O)[C@H](CCCNC(=N)N)NC(=O)[C@H](CCCNC(=N)N)NC(=O)[C@H](CCCNC(=N)N)NC(=O)[C@@H]1CCCN1C(=O)[C@H](CCCCN)NC(=O)[C@H](CO)NC(=O)CCC(=O)NCCCOCCOCCOCCCNC(=O)CCCC[C@@H]1SC[C@@H]2NC(=O)N[C@@H]21)[C@@H](C)OP(=O)(O)O)C(=O)O [pHPV35E6T-6R] ({X1-Suc}-SKPRRRE[pT]EV-OH)	71.2 ± 6.7	–	–	139 ± 21	–	–	–	85 ± 20.6	–
CC(C)[C@H](NC(=O)[C@H](CCC(=O)O)NC(=O)[C@@H](NC(=O)[C@H](CCC(=O)O)NC(=O)[C@H](CCCNC(=N)N)NC(=O)[C@H](CCCNC(=N)N)NC(=O)[C@@H](NC(=O)[C@@H]1CCCN1C(=O)[C@H](CCCCN)NC(=O)[C@H](CO)NC(=O)CCC(=O)NCCCOCCOCCOCCCNC(=O)CCCC[C@@H]1SC[C@@H]2NC(=O)N[C@@H]21)[C@@H](C)O)[C@@H](C)OP(=O)(O)O)C(=O)O [pHPV35E6] ({X1-Suc}-SKPTRRE[pT]EV-OH)	–	> 300	–	–	–	–	125 ± 6	163 ± 19	√

Reference: PMC7961048, “Hierarchized phosphotarget binding by the seven human 14-3-3 isoforms” (Nature Communications, 2021)
